Common to all, as to format: biochemical
In one assay the target is ROCK I (Homo sapiens, UniProt Q13464). Description: ROCK-I inhibition assay (radioactive enzyme assay, MBP substrate). The method in brief: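 Human ROCK at 5 nM phosphorylated 27 μM myelin basic protein with 13 μM [γ-33P]ATP (final) in HEPES pH 7.5, MgCl2, NaCl, DTT and 1.5% DMSO. Reactions ran 2 h at room temperature before TCA quench and filter-plate scintillation counting. After background subtraction, data were fit to give Ki(app).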

The target of another assay is JAK2 (Homo sapiens, UniProt O60674). Briefly: JAK2 inhibition assay (as Example 3 with JAK-2 enzyme). An outline of the steps: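 In HEPES pH 7.4 buffer with 10 mM MgCl2, 1 mM DTT, 25 mM NaCl and 0.01% BSA, JAK2 enzyme phosphorylated poly(Glu)4Tyr (final 15 μM) using 33P-ATP (final 12 μM) for 20 min at room temperature (25 °C). Reactions stopped with TCA; incorporated 33P measured by scintillation after filtration.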

In a further assay the target is T1, JAK3 (Homo sapiens, UniProt P52333).
T1 sequence (P52333 1-1124): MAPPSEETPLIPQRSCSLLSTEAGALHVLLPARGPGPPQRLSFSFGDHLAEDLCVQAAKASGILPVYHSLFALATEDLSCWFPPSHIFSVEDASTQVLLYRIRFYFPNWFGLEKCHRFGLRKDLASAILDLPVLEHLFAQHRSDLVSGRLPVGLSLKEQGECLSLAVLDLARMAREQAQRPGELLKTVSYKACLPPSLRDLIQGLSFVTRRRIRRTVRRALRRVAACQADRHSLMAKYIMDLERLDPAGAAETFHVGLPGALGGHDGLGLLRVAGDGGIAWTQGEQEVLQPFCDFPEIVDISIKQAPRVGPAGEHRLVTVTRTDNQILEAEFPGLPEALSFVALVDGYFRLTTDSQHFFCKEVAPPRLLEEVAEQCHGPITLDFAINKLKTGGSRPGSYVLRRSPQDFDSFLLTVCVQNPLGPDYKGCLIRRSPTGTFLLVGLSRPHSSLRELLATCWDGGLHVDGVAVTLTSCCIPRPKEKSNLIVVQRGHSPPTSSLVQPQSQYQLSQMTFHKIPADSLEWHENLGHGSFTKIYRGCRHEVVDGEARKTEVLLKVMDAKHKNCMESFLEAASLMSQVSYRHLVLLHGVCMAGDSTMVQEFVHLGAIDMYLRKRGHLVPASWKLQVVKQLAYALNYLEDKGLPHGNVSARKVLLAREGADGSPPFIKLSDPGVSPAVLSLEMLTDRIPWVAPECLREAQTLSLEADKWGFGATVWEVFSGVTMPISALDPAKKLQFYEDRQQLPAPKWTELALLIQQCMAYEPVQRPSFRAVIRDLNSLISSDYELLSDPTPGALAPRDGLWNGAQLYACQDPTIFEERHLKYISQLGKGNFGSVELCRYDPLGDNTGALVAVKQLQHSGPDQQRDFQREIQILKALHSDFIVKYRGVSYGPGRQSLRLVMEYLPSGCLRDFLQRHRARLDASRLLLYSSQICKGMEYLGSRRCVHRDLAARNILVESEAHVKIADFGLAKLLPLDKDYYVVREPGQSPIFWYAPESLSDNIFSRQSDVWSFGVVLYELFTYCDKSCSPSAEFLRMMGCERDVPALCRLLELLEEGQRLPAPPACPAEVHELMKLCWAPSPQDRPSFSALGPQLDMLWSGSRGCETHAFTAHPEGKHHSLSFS
Briefly: JAK3 inhibition assay (33P incorporation into poly(Glu)4Tyr). The method in brief:
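After TCA quench and filter harvest, scintillation counting of 33P measured phosphorylation of poly(Glu)4Tyr (1 μM) by 1 nM JAK3. The 20-min, 25° C. reaction contained 5 μM ATP (200 μCi/μmole) in pH 7.4 HEPES buffer with 10 mM MgCl2.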

[1] abbreviates: Table 6, enzyme inhibition data (Ki).
Where [2] appears, read: enzyme inhibition, Ki(app), Table 5.

The structures appear in SMILES notation.

JAK2, sequence (O60674 whole entry): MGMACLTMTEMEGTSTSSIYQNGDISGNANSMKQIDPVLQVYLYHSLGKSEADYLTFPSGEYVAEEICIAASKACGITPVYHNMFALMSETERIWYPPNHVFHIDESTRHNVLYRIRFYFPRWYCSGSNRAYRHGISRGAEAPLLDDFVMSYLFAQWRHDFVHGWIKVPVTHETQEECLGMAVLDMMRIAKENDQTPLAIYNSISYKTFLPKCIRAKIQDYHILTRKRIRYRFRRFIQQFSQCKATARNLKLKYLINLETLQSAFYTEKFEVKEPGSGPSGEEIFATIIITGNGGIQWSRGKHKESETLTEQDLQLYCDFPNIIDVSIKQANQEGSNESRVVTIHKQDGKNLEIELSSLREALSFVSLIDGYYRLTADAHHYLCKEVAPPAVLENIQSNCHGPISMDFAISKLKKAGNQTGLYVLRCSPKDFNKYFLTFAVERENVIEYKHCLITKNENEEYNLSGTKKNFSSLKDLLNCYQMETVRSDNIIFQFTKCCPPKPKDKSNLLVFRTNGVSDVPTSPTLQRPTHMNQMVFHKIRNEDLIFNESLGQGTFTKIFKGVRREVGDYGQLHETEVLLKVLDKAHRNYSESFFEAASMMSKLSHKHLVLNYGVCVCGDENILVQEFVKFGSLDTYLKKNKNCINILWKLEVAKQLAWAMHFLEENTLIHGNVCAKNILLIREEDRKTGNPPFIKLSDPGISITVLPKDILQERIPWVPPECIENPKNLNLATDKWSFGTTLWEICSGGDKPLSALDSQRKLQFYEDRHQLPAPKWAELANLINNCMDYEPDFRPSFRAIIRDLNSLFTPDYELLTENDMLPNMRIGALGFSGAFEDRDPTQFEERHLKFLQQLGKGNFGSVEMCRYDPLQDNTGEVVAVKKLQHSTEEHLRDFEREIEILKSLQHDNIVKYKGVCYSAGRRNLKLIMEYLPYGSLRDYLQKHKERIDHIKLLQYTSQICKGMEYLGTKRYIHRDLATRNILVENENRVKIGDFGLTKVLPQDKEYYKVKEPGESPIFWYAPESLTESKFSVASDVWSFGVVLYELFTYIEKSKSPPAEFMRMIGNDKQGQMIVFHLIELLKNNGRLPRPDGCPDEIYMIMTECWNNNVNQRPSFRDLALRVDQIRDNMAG
ROCK I, sequence (Q13464 whole entry): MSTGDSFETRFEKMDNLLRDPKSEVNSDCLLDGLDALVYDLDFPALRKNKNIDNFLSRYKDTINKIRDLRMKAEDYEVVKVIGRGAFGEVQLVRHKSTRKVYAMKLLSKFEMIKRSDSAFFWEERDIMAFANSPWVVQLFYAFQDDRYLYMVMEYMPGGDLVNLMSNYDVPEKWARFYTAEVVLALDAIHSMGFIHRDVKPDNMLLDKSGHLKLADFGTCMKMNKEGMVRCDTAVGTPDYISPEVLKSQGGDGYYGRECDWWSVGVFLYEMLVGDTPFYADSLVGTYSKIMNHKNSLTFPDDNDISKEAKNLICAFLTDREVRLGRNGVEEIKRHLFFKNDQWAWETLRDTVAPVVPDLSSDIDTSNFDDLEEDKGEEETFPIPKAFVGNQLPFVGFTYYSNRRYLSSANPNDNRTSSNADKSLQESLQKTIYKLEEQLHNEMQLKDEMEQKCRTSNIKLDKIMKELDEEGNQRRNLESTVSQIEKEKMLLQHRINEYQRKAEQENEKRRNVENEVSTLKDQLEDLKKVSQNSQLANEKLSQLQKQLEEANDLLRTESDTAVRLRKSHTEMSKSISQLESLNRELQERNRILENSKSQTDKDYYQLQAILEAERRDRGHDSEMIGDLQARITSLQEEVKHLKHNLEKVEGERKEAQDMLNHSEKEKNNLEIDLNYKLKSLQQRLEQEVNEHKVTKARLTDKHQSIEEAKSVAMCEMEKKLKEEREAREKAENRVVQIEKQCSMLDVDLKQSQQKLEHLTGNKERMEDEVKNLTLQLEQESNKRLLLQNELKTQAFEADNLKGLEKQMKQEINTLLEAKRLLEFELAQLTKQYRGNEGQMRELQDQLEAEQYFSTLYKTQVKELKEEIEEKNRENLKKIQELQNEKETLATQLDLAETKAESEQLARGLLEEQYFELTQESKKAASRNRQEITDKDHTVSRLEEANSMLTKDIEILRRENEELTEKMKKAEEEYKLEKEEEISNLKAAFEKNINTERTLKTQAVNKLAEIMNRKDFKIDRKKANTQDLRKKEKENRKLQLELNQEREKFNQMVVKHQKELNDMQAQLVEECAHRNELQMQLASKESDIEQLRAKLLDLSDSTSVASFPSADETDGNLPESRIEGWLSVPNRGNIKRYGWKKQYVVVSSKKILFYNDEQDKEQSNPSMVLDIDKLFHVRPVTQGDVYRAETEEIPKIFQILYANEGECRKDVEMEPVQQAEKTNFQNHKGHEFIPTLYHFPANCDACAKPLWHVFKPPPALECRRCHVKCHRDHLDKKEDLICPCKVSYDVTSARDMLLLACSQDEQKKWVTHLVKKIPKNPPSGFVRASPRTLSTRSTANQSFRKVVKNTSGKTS

With `O=C(CC(F)(F)F)N1CCCC(Nc2c(Cl)cnc3[nH]ccc23)C1` (stereo not drawn) [compound 186], the Ki on ROCK I (setting [1]) is 500 to 5000 nM; at JAK2 (setting [1]), < 500 nM; at JAK3 (setting [1]), < 500 nM.
As to `O=C(NCCC(F)(F)F)c1cc(-c2ccnc3[nH]ccc23)c[nH]1` [compound 293], the Ki at ROCK I (setting [1]), at JAK2 (setting [1]) and at JAK3 (setting [1]) was < 500 nM each time.
Take `N#CCCN(Cc1cccnc1)C(=O)c1ccc(-c2ccnc3[nH]ccc23)s1` [compound 316]: the Ki at ROCK I (setting [1]), on JAK2 (setting [1]) and on JAK3 (setting [1]) was < 500 nM each time.
With `N#Cc1ccc(-c2ccnc3[nH]ccc23)s1` [compound 108, 5-(1H-Pyrrolo[2,3-b]pyridin-4-yl)-thiophene-2-carbonitrile], the Ki at ROCK I (setting [2]) is < 500 nM; on JAK2 (enzyme inhibition, Table 5), < 500 nM; at JAK3 (enzyme inhibition, Table 5), < 500 nM.
Turning to `Clc1ccccc1Nc1c(Cl)cnc2[nH]ccc12` [compound 158], the Ki at ROCK I (setting [1]) is 500 to 5000 nM; at JAK2 (setting [1]) it was < 500 nM; on JAK3 (setting [1]), < 500 nM.
Consider `CCOC(=O)c1cccc(-c2ccnc3[nH]ccc23)c1` [compound 46, 3-(1H-Pyrrolo[2,3-b]pyridin-4-yl)-benzoic acid ethyl ester], for which the Ki on ROCK I (setting [2]) lay in the range of 500 to 5000 nM; on JAK2 (enzyme inhibition, Table 5), 500 to 5000 nM; on JAK3 (enzyme inhibition, Table 5), 500 to 5000 nM.
`c1cc(-c2ccnc3[nH]ccc23)[nH]n1` [compound 106, 4-(2H-Pyrazol-3-yl)-1H-pyrrolo[2,3-b]pyridine]: the Ki is < 500 nM at ROCK I (setting [2]); 500 to 5000 nM on JAK2 (enzyme inhibition, Table 5); < 500 nM at JAK3 (enzyme inhibition, Table 5).
As to `O=C(CC(F)(F)F)N1CC[C@H](Nc2c(Cl)cnc3[nH]ccc23)C1` [compound 187], the Ki is 500 to 5000 nM at ROCK I (setting [1]), < 500 nM at JAK2 (setting [1]) and < 500 nM at JAK3 (setting [1]).
Take `CCCN(CCC)C(=O)c1cc(-c2ccnc3[nH]ccc23)c[nH]1` [compound 309]: the Ki at ROCK I (setting [1]), on JAK2 (setting [1]) and at JAK3 (setting [1]) was < 500 nM throughout.
For `COC(=O)N1CC[C@@H](Nc2c(Cl)cnc3[nH]ccc23)C1` [compound 170], the Ki on ROCK I (setting [1]) was 500 to 5000 nM; at JAK2 (setting [1]) it was < 500 nM; at JAK3 (setting [1]) it was < 500 nM.
`CNC(=O)c1cc(-c2c(Cl)cnc3[nH]ccc23)c[nH]1` [compound 277]: the Ki was 500 to 5000 nM on ROCK I (setting [1]), < 500 nM on JAK2 (setting [1]) and < 500 nM on JAK3 (setting [1]).
With `CNC(=O)c1ccc(-c2ccnc3[nH]ccc23)cc1` [compound 272], the Ki at ROCK I (setting [1]), on JAK2 (setting [1]) and on JAK3 (setting [1]) was < 500 nM in each case.
`N#CCCN(Cc1ccccc1)C(=O)c1ccc(-c2ccnc3[nH]ccc23)s1` [compound 328]: the Ki on ROCK I (setting [1]), at JAK2 (setting [1]) and on JAK3 (setting [1]) was < 500 nM in each case.

Source of the values: US8921376B2, “Pyrrolopyridines useful as inhibitors of protein kinase” (Vertex Pharmaceuticals Incorporated, priority 2005, dated 2014).
